Experiments:
Assay type in all cases: cell-based, mouse
[1] = tested on: MMTV-PyMT tumor organoids; experiment: Mitosis (pH3) and K14 staining of tumor organoids treated with a mitosis inhibitor; conditions: aphidicolin 10 mM from day 0, 3D collagen matrix
Source text: FIG. 4. Lumenal Tumor Cells Acquire Markers of Basal Differentiation (A) Mouse mammary tumor organoids grown in 3D collagen matrix stained with K8 and K14. (B) Bar graph of percentage of tumor organoids with K8 or K14 intensity equal to or greater than 1+ as a function of time. K14 and K8 intensity was quantified into 0 (no or few), 1 (intermediate), or 2 (bright) K14 signal. Data are presented as mean±SD. For K14: n=719 organoids from 5-8 mice per day; for K8: n=269 organoids from 3 mice per day. (C) Mammary tumor organoids grown in 3D collagen matrix stained with p63 and DAPI. (D) The percentage of organoids with nuclei positive for p63 was counted. Data are presented as mean±SD. n=114 organoids from 2 mice per day. (E) Invasion was quantified by scoring protrusive morphology of cancer cells in contact with the ECM. Data are presented as mean±SD. n=916 organoids from 4-7 mice per day. (F) Tumor organoids treated from day 0 with DMSO vehicle or a mitosis inhibitor (aphidicolin 10 mM) stained with K14, pH3, and DAPI. […] (H) K14 intensity scored in vehicle or aphidicolin. K14 intensity was quantified into 0 (no or few), 1 (intermediate), or 2 (bright) K14 signal. n=110 organoids from 2 mice per condition. […] All p values were determined by two-sided t test. *p<0.05. **p<0.01. ***p<0.001. […]

[2] = tested on: MMTV-PyMT tumor organoids; experiment: Oxytocin contractility experiment
Source text: FIG. 8. Leader Cells Are Molecularly Distinct from Normal Differentiated Myoepithelial Cells and Coexpress Lumenal Epithelial Markers, Related to FIG. 1 (A-C) Leader cells from MMTV-PyMT tumor organoids stained with K14 and K8 (A), K8, p63, and phalloidin (B), or E-cadherin (Ecad) and phalloidin (C). Arrow in (A), a K14+K8+ cell. Arrow in (B), a K8+p63+ cell. 75% of leaders were K14+K8+(n=21/28) and 34% of leaders were K8+p63+(n=22/65). Blue arrows in (C), Ecadherin staining at cell-cell contacts between leader and follower cells. […] Data presented as mean±sd. n=3 normal and tumor organoids. **p<0.01, *p<0.05; p values determined by two-sided t test. […] (G) The reduction in organoid area calculated in (F) provides a proxy for oxytocin-dependent contractility. Organoids were incubated in oxytocin at the specified doses, and the change in area was determined. […] N=23-30 organoids per condition from 3 independent experiments. *p<0.005, […]; p values determined by two-sided t test. […]
Normal mammary epithelial organoids and MMTV-PyMT tumor organoids were embedded in 3D collagen I matrix and cultured in FGF2 organoid media for 4 days. Normal and tumor organoids were then monitored by DIC time-lapse microscopy collecting images every 5 min. […]

K14+ cells = experiment: Doxorubicin challenge of mammary carcinoma cells; conditions: challenge with doxorubicin

C[C@@]1(CO)[C@H](O)CC[C@@]2(C)[C@H]1CC[C@H]1C[C@@H]3C[C@@]12CC[C@]3(O)CO [aphidicolin]
increase in K14+ cells (K14 intensity) [1]: did not prevent an increase in K14+ cells | mitosis (pH3+ nuclei per tumor organoid) [1]: blocked mitosis completely

CC[C@H](C)[C@@H]1NC(=O)[C@H](Cc2ccc(O)cc2)NC(=O)[C@@H](N)CSSC[C@@H](C(=O)N2CCC[C@H]2C(=O)N[C@@H](CC(C)C)C(=O)NCC(N)=O)NC(=O)[C@H](CC(N)=O)NC(=O)[C@H](CCC(N)=O)NC1=O [oxytocin]
time of maximal contraction postincubation ([2]; normal mammary and MMTV-PyMT tumor organoids, oxytocin at nM concentrations): 25 min | contraction of leader cells in response to oxytocin ([2]; oxytocin 5 and 50 nM, 3D collagen I, day 4): did not contract

COc1cccc2c1C(=O)c1c(O)c3c(c(O)c1C2=O)C[C@@](O)(C(=O)CO)C[C@@H]3O[C@H]1C[C@H](N)[C@H](O)[C@H](C)O1 [doxorubicin]
representation of K14+ cells among the intrinsically resistant cells (K14+ cells): strongly overrepresented

— patent US10545133B2, “Molecular signatures of invasive cancer subpopulations” (The Johns Hopkins University, priority 2013, dated 2020)
